Test results as given in PubChem BioAssay AID248 (DTP/NCI, 2004).
Values joined by “and” are separate entries in the source; they are usually repeats but may differ in a detail not shown here. Equal entries are not always repeated. Toxic doses and inconclusive results are not listed.

System: L1210 leukemia ip in BDF1 mice, survival T/C
Assay: NCI In Vivo Anticancer Drug Screen. Data for tumor model L1210 Leukemia (intraperitoneal) in B6D2F1 (BDF1) mice
Details: higher = longer survival
How it was run: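 Read-out is survival time, reported as the treated-group measurement over the vehicle-control measurement.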

## C[n+]1ccc(Nc2ccc(NC(=O)c3ccc(Nc4cc[n+](C)c5ccc(N)cc45)cc3)cc2)cc1
endpoint: mean survival time, dose: 0.5 mg/kg/injection, schedule: Q01DX009 (ip), vehicle: water
  T/C: 118 % of control
endpoint: mean survival time, dose: 0.5 mg/kg/injection, schedule: Q01DX009 (sc), vehicle: water
  T/C: 151 % of control
endpoint: mean survival time, dose: 1.0 mg/kg/injection, schedule: Q01DX009 (ip), vehicle: Klucel (hydroxypropylcellulose) (HPC)
  T/C: 112 % of control
endpoint: mean survival time, dose: 1.0 mg/kg/injection, schedule: Q01DX009 (sc), vehicle: Klucel (hydroxypropylcellulose) (HPC)
  T/C: 159 % of control
endpoint: mean survival time, dose: 1.0 mg/kg/injection, schedule: Q01DX009 (sc), vehicle: water
  T/C: 110 % of control and 113 % of control
endpoint: mean survival time, dose: 2.0 mg/kg/injection, schedule: Q01DX009 (ip), vehicle: Klucel (hydroxypropylcellulose) (HPC)
  T/C: 107 % of control
endpoint: mean survival time, dose: 2.0 mg/kg/injection, schedule: Q01DX009 (ip), vehicle: water
  T/C: 185 % of control and 204 % of control and 235 % of control
endpoint: mean survival time, dose: 2.0 mg/kg/injection, schedule: Q01DX009 (sc), vehicle: water
  T/C: 175 % of control
endpoint: mean survival time, dose: 4.0 mg/kg/injection, schedule: Q01DX009 (ip), vehicle: Klucel (hydroxypropylcellulose) (HPC)
  T/C: 118 % of control
endpoint: mean survival time, dose: 4.0 mg/kg/injection, schedule: Q01DX009 (ip), vehicle: water
  T/C: 234 % of control and 267 % of control and 272 % of control
endpoint: mean survival time, dose: 4.0 mg/kg/injection, schedule: Q01DX009 (sc), vehicle: Klucel (hydroxypropylcellulose) (HPC)
  T/C: 200 % of control
endpoint: mean survival time, dose: 4.0 mg/kg/injection, schedule: Q01DX009 (sc), vehicle: water
  T/C: 205 % of control and 224 % of control
endpoint: mean survival time, dose: 8.0 mg/kg/injection, schedule: Q01DX009 (ip), vehicle: Klucel (hydroxypropylcellulose) (HPC)
  T/C: 215 % of control
endpoint: mean survival time, dose: 8.0 mg/kg/injection, schedule: Q01DX009 (ip), vehicle: water
  T/C: 175 % of control and 211 % of control and 252 % of control
endpoint: mean survival time, dose: 8.0 mg/kg/injection, schedule: Q01DX009 (sc), vehicle: water
  T/C: 190 % of control and 222 % of control
endpoint: mean survival time, dose: 10.0 mg/kg/injection, schedule: Q01DX009 (oral), vehicle: Klucel (hydroxypropylcellulose) (HPC)
  T/C: 104 % of control
endpoint: mean survival time, dose: 12.5 mg/kg/injection, schedule: Q04DX003 (ip), vehicle: saline with Tween-80
  T/C: 247 % of control
endpoint: mean survival time, dose: 12.5 mg/kg/injection, schedule: Q04DX003 (ip), vehicle: saline
  T/C: 257 % of control
endpoint: mean survival time, dose: 16.0 mg/kg/injection, schedule: Q01DX009 (sc), vehicle: Klucel (hydroxypropylcellulose) (HPC)
  T/C: 176 % of control
endpoint: mean survival time, dose: 16.0 mg/kg/injection, schedule: Q01DX009 (sc), vehicle: water
  T/C: 155 % of control and 171 % of control
endpoint: mean survival time, dose: 20.0 mg/kg/injection, schedule: Q01DX009 (oral), vehicle: Klucel (hydroxypropylcellulose) (HPC)
  T/C: 105 % of control
endpoint: mean survival time, dose: 25.0 mg/kg/injection, schedule: Q04DX003 (ip), vehicle: saline with Tween-80
  T/C: 269 % of control
endpoint: mean survival time, dose: 40.0 mg/kg/injection, schedule: Q01DX009 (oral), vehicle: Klucel (hydroxypropylcellulose) (HPC)
  T/C: 100 % of control
endpoint: mean survival time, dose: 50.0 mg/kg/injection, schedule: Q04DX003 (ip), vehicle: saline with Tween-80
  T/C: 248 % of control
endpoint: mean survival time, dose: 50.0 mg/kg/injection, schedule: Q04DX003 (ip), vehicle: saline
  T/C: 253 % of control
endpoint: mean survival time, dose: 75.0 mg/kg/injection, schedule: Q04DX003 (ip), vehicle: saline
  T/C: 227 % of control
endpoint: mean survival time, dose: 80.0 mg/kg/injection, schedule: Q01DX009 (oral), vehicle: Klucel (hydroxypropylcellulose) (HPC)
  T/C: 105 % of control
endpoint: mean survival time, dose: 160.0 mg/kg/injection, schedule: Q01DX009 (oral), vehicle: Klucel (hydroxypropylcellulose) (HPC)
  T/C: 101 % of control
endpoint: median survival time, dose: 0.25 mg/kg/injection, schedule: Q03HX008 (ip), vehicle: water
  T/C: 103 % of control and 121 % of control
endpoint: median survival time, dose: 0.25 mg/kg/injection, schedule: Q03HX016 (ip), vehicle: water
  T/C: 107 % of control and 116 % of control
endpoint: median survival time, dose: 0.25 mg/kg/injection, schedule: Q03HX024 (ip), vehicle: water
  T/C: 112 % of control and 116 % of control
endpoint: median survival time, dose: 0.5 mg/kg/injection, schedule: Q01DX005 (ip), vehicle: water
  T/C: 102 % of control and 124 % of control
endpoint: median survival time, dose: 0.5 mg/kg/injection, schedule: Q01DX009 (ip), vehicle: water
  T/C: 112 % of control and 122 % of control
endpoint: median survival time, dose: 0.5 mg/kg/injection, schedule: Q01DX009 (sc), vehicle: water
  T/C: 96 % of control and 100 % of control
endpoint: median survival time, dose: 0.5 mg/kg/injection, schedule: Q03HX008 (ip), vehicle: water
  T/C: 112 % of control
endpoint: median survival time, dose: 0.5 mg/kg/injection, schedule: Q03HX016 (ip), vehicle: water
  T/C: 119 % of control
endpoint: median survival time, dose: 0.5 mg/kg/injection, schedule: Q03HX024 (ip), vehicle: water
  T/C: 150 % of control
endpoint: median survival time, dose: 1.0 mg/kg/injection, schedule: Q01DX005 (ip), vehicle: water
  T/C: 117 % of control
endpoint: median survival time, dose: 1.0 mg/kg/injection, schedule: Q01DX009 (sc), vehicle: water
  T/C: 101 % of control and 111 % of control
endpoint: median survival time, dose: 1.0 mg/kg/injection, schedule: Q03HX016 (ip), vehicle: water
  T/C: 169 % of control
endpoint: median survival time, dose: 1.0 mg/kg/injection, schedule: Q03HX024 (ip), vehicle: water
  T/C: 169 % of control and 186 % of control
endpoint: median survival time, dose: 2.0 mg/kg/injection, schedule: Q01DX001 (sc), vehicle: water
  T/C: 97 % of control and 98 % of control
endpoint: median survival time, dose: 2.0 mg/kg/injection, schedule: Q01DX005 (ip), vehicle: water
  T/C: 179 % of control
endpoint: median survival time, dose: 2.0 mg/kg/injection, schedule: Q01DX009 (ip), vehicle: water
  T/C: 177 % of control and 224 % of control
endpoint: median survival time, dose: 2.0 mg/kg/injection, schedule: Q01DX009 (sc), vehicle: water
  T/C: 150 % of control
endpoint: median survival time, dose: 2.0 mg/kg/injection, schedule: Q03HX008 (ip), vehicle: water
  T/C: 169 % of control
endpoint: median survival time, dose: 2.0 mg/kg/injection, schedule: Q03HX016 (ip), vehicle: water
  T/C: 158 % of control and 213 % of control
endpoint: median survival time, dose: 2.0 mg/kg/injection, schedule: Q03HX024 (ip), vehicle: water
  T/C: 197 % of control
endpoint: median survival time, dose: 2.0 mg/kg/injection, schedule: Q04DX003 (ip), vehicle: water
  T/C: 114 % of control and 121 % of control
endpoint: median survival time, dose: 2.0 mg/kg/injection, schedule: Q08DX002 (ip), vehicle: water
  T/C: 110 % of control and 113 % of control
endpoint: median survival time, dose: 4.0 mg/kg/injection, schedule: Q01DX001 (ip), vehicle: water
  T/C: 110 % of control
endpoint: median survival time, dose: 4.0 mg/kg/injection, schedule: Q01DX001 (sc), vehicle: water
  T/C: 95 % of control and 105 % of control
endpoint: median survival time, dose: 4.0 mg/kg/injection, schedule: Q01DX005 (ip), vehicle: water
  T/C: 195 % of control
endpoint: median survival time, dose: 4.0 mg/kg/injection, schedule: Q01DX009 (ip), vehicle: water
  T/C: 231 % of control
endpoint: median survival time, dose: 4.0 mg/kg/injection, schedule: Q01DX009 (sc), vehicle: water
  T/C: 183 % of control and 222 % of control
endpoint: median survival time, dose: 4.0 mg/kg/injection, schedule: Q03HX008 (ip), vehicle: water
  T/C: 202 % of control
endpoint: median survival time, dose: 4.0 mg/kg/injection, schedule: Q03HX016 (ip), vehicle: water
  T/C: 229 % of control and 261 % of control
endpoint: median survival time, dose: 4.0 mg/kg/injection, schedule: Q03HX024 (ip), vehicle: water
  T/C: 201 % of control and 247 % of control
endpoint: median survival time, dose: 4.0 mg/kg/injection, schedule: Q04DX003 (ip), vehicle: water
  T/C: 124 % of control
endpoint: median survival time, dose: 4.0 mg/kg/injection, schedule: Q08DX002 (ip), vehicle: water
  T/C: 116 % of control and 124 % of control
endpoint: median survival time, dose: 8.0 mg/kg/injection, schedule: Q01DX001 (ip), vehicle: water
  T/C: 121 % of control
endpoint: median survival time, dose: 8.0 mg/kg/injection, schedule: Q01DX001 (sc), vehicle: water
  T/C: 105 % of control and 113 % of control
endpoint: median survival time, dose: 8.0 mg/kg/injection, schedule: Q01DX005 (ip), vehicle: water
  T/C: 211 % of control
endpoint: median survival time, dose: 8.0 mg/kg/injection, schedule: Q01DX009 (sc), vehicle: water
  T/C: 178 % of control
endpoint: median survival time, dose: 8.0 mg/kg/injection, schedule: Q04DX003 (ip), vehicle: water
  T/C: 164 % of control
endpoint: median survival time, dose: 8.0 mg/kg/injection, schedule: Q08DX002 (ip), vehicle: water
  T/C: 153 % of control
endpoint: median survival time, dose: 16.0 mg/kg/injection, schedule: Q01DX001 (sc), vehicle: water
  T/C: 105 % of control
endpoint: median survival time, dose: 16.0 mg/kg/injection, schedule: Q01DX009 (sc), vehicle: water
  T/C: 95 % of control
endpoint: median survival time, dose: 32.0 mg/kg/injection, schedule: Q01DX001 (sc), vehicle: water
  T/C: 165 % of control
endpoint: median survival time, dose: 64.0 mg/kg/injection, schedule: Q01DX001 (sc), vehicle: water
  T/C: 192 % of control and 267 % of control

## O=S(=O)(Cl)C1c2ccccc2-c2ccccc21
endpoint: mean survival time, dose: 100.0 mg/kg/injection, schedule: Q04DX002 (ip), vehicle: other
  T/C: 104 % of control
endpoint: mean survival time, dose: 200.0 mg/kg/injection, schedule: Q04DX002 (ip), vehicle: other
  T/C: 96 % of control
endpoint: mean survival time, dose: 400.0 mg/kg/injection, schedule: Q04DX002 (ip), vehicle: other
  T/C: 90 % of control

## CCOC(=O)C(C)C1CCCc2c(C)ccc(C)c21 (stereo unspecified)
endpoint: mean survival time, dose: 100.0 mg/kg/injection, schedule: Q01DX009 (ip), vehicle: Klucel (hydroxypropylcellulose) (HPC)
  T/C: 100 % of control
endpoint: mean survival time, dose: 100.0 mg/kg/injection, schedule: Q04DX003 (ip), vehicle: Klucel (hydroxypropylcellulose) (HPC)
  T/C: 98 % of control
endpoint: mean survival time, dose: 200.0 mg/kg/injection, schedule: Q01DX009 (ip), vehicle: Klucel (hydroxypropylcellulose) (HPC)
  T/C: 102 % of control
endpoint: mean survival time, dose: 200.0 mg/kg/injection, schedule: Q04DX003 (ip), vehicle: Klucel (hydroxypropylcellulose) (HPC)
  T/C: 92 % of control
endpoint: mean survival time, dose: 400.0 mg/kg/injection, schedule: Q01DX009 (ip), vehicle: Klucel (hydroxypropylcellulose) (HPC)
  T/C: 93 % of control
endpoint: mean survival time, dose: 400.0 mg/kg/injection, schedule: Q04DX003 (ip), vehicle: Klucel (hydroxypropylcellulose) (HPC)
  T/C: 98 % of control

## S=C(Nc1cccc(Cl)c1)Nc1cccc(Cl)c1
endpoint: mean survival time, dose: 100.0 mg/kg/injection, schedule: Q04DX003 (ip), vehicle: saline with Tween-80
  T/C: 94 % of control
endpoint: mean survival time, dose: 200.0 mg/kg/injection, schedule: Q04DX003 (ip), vehicle: saline with Tween-80
  T/C: 97 % of control
